{"source": "patent US20230381269A1", "about": "“METHODS OF TREATING EYE DISORDERS” (Apellis Pharmaceuticals, Inc., priority 2020, published 2023)", "key": {"patients with GA [1]": {"system": "patients with GA", "assay": "Phase 2 randomized sham-controlled clinical trial in GA: change in GA lesion size", "type": "in vivo, human", "conditions": "15 mg intravitreal monthly or every other month for 12 months vs sham", "protocol": "A randomized, single-masked, sham-controlled clinical trial of pegcetacoplan in patients with GA was conducted. 246 patients aged ≥50 years were enrolled in the trial.\nPatients were randomized in a 2:2:1:1 manner to receive 15 mg pegcetacoplan (APL-2) monthly, 15 mg pegcetacoplan every other month, sham injection monthly or sham injection every other month. Patients in the pegcetacoplan arms received a dose of 15 mg of pegcetacoplan, injected into the vitreous humor in a 0.1 cc volume, monthly or every other month for 12 months followed by six months of monitoring after the end of treatment. In the sham-injection cohorts, patients received a simulated injection. The safety, tolerability, PK, and evidence of activity of multiple intravitreal injections of pegcetacoplan in patients with GA in at least one eye were assessed. The primary efficacy endpoint was change in GA lesion size from baseline to month 12. […] The adverse event profile is depicted in FIG. 3. (See also Liao et al., Ophthalmology 127:186-195 (2020).)"}, "patients with GA [2]": {"system": "patients with GA", "assay": "Post hoc OCT analysis of Phase 2 trial: progression outside GA lesions (large drusen to iRORA/cRORA, iRORA to cRORA)", "type": "in vivo, human", "conditions": "for reduction in the risk of progression to cRORA compared with sham: 12 months", "protocol": "Post hoc analysis was also conducted to assess disease progression outside of GA lesions. Participants in the study (n=246) were categorized into PM (n=86), EOM (n=79), and sham (n=81) categories. Eyes with missed injections and those that developed exudative AMD (whereupon pegcetacoplan treatment was discontinued) were excluded. […] Masked readers evaluated OCT scans outside a 500-micron perimeter from the GA border adhering to classification described in Sadda et al., Ophthalmology 125:537-548 (2018)). […] SD-OCT images obtained at baseline, Month 6, and Month 12 (using the Zeiss Cirrus or 156 Heidelberg Spectralis) using 7-line raster scans (30×5, 240 μm spacing, 7 sections, ART set to 25, 1536 A-scans) and volume scans (20×20; 49 sections, 120 μm spacing, ART set to 16, 512 A-scans) were graded following the CAM criteria independently by two masked readers at the Doheny Image Reading and Research Lab (DIRRL). A senior reader (and member of the CAM group) reviewed all questionable cases flagged by the readers and also adjudicated any discrepancies between graders in order to yield a single consensus result for each case.\nMain outcome measures included assessments at baseline, Month 6 and Month 12 of: a) progression from large drusen (≥40 microns height) to incomplete/complete RPE and outer retina atrophy (iRORA and/or cRORA) and b) progression from iRORA to cRORA. Specifically, the endpoints for each treatment group were: proportion of study eyes with at least one iRORA at baseline that progressed to cRORA at 6 and 12 months, and proportion of individual baseline iRORA lesions that progressed to cRORA at 6 and 12 months.\nBaseline characteristics were summarized using descriptive statistics. Continuous variables, such as GA lesion size, were summarized using the number of observations, mean, standard deviation, median, minimum, and maximum. Categorical variables, such as the presence of iRORA lesion(s) at baseline, were summarized using counts and percentages. The progression of iRORA to cRORA was summarized at Months 6 and 12 at both the study eye and lesion level. For the study-eye-level summaries, the subset of eyes with at least one iRORA lesion at baseline was included. If at least one iRORA lesion was present at baseline progressed to cRORA during follow-up, the eye was counted as having progressed. The proportion of study eyes with progression was compared between each pegcetacoplan group and the sham control group using a Pearson chi-square test. P values <0.05 were considered statistically significant. Risk ratios and their corresponding 95% confidence intervals were calculated as the proportion that progressed from iRORA to cRORA in the pegcetacoplan group divided by the proportion in the sham group. For the lesion-level summaries of progression, each iRORA lesion present at baseline was assessed separately for progression to a cRORA lesion; the proportion of lesions that progressed was compared between each pegcetacoplan group and the sham control group using descriptive statistics (counts and percentages)."}, "[3]": {"assay": "Repeated intravitreal injection toxicology/toxicokinetics over nine months in cynomolgus monkeys", "type": "in vivo", "protocol": "Preclinical studies in monkeys were performed to assess the safety and pharmacology of pegcetacoplan when injected intravitreally. Intravitreally administered pegcetacoplan in cynomolgus monkeys is distributed into the blood stream then further distributed and/or slowly eliminated from the body."}, "[4]": {"assay": "Pharmacokinetic profile of a single intravitreal dose in monkeys", "type": "in vivo", "conditions": "single intravitreal dose 10 mg/eye in both eyes"}, "patients with wet AMD": {"system": "patients with wet AMD", "assay": "Phase 1b open label single ascending dose clinical trial, intravitreal injection", "type": "in vivo, human", "protocol": "In some embodiments a dose for intravitreal injection of a compstatin analog (e.g., comprising two compstatin analog moieties and a PEG having a molecular weight of about 40 kD) is 5 mg-20 mg. In some embodiments the dose is 10 mg. In some embodiments the dose is 10 mg, 11 mg, 12 mg, 13 mg, 14 mg, 15 mg, 16 mg, 17 mg, 18 mg, 19 mg, or 20 mg. In certain particular embodiments the dose is 15 mg. In some embodiments, any of the afore-mentioned doses is administered by intravitreal injection in a volume of between 90 and 110 microliters, e.g., in a volume of 100 microliters. In some embodiments, any of the afore-mentioned doses is administered by intravitreal injection using a 27, 28, 29, or 30 gauge needle. […] In certain embodiments a combination of dose and needle gauge that allows administration by IVT injection in 10 seconds or less is selected. In certain embodiments a combination of dose and needle that allows administration of the dose by IVT injection in 5-6 seconds, or less, is used.\nA Phase 1 open label, single ascending dose clinical trial of pegcetacoplan in patients with wet AMD and receiving anti-VEGF therapy (specifically, Lucentis®, Eylea® or Avastin®), was initiated to assess safety, tolerability and PK of pegcetacoplan. In this trial, patients receive a single dose of pegcetacoplan by intravitreal injection followed by 113 days of monitoring. […]"}}}
{"substance": "Poly(oxy-1,2-ethanediyl), α-hydro-ω-hydroxy-, 15,15′-diester with N-acetyl-L-isoleucyl-L-cysteinyl-L-valyl-1-methyl-L-tryptophyl-L-glutaminyl-L-α-aspartyl-L-tryptophylglycyl-L-alanyl-L-histidyl-L-arginyl-L-cysteinyl-L-threonyl-2-[2-(2-aminoethoxy)ethoxy]acetyl-N^6-carboxy-L-lysinamide cyclic (2->12)-(disulfide) [pegcetacoplan]", "values": [{"measurement": "rate of GA lesion growth (change in GA lesion size from baseline to month 12)", "setting": "patients with GA [1]", "value": "reduced rate of lesion growth"}, {"measurement": "reduction in the risk of progression to cRORA compared with sham", "setting": "patients with GA [2]; every other month, lesion level", "value": 40, "unit": "%"}, {"measurement": "reduction in the risk of progression to cRORA compared with sham", "setting": "patients with GA [2]; every other month, study-eye level", "value": 30, "unit": "%"}, {"measurement": "reduction in the risk of progression to cRORA compared with sham", "setting": "patients with GA [2]; monthly, lesion level", "value": 41, "unit": "%"}, {"measurement": "reduction in the risk of progression to cRORA compared with sham", "setting": "patients with GA [2]; monthly, study-eye level", "value": 39, "unit": "%"}, {"measurement": "Relative risk of progression from iRORA to cRORA vs sham (95% CI)", "setting": "patients with GA [2]; Month 6, PEOM, lesion level data", "value": "0.51 (0.30-0.87)"}, {"measurement": "Relative risk of progression from iRORA to cRORA vs sham (95% CI)", "setting": "patients with GA [2]; Month 6, PEOM, study-eye level", "value": "0.76 (0.45-1.29)"}, {"measurement": "Relative risk of progression from iRORA to cRORA vs sham (95% CI)", "setting": "patients with GA [2]; Month 6, PM, lesion level data", "value": "0.53 (0.24-1.14)"}, {"measurement": "Relative risk of progression from iRORA to cRORA vs sham (95% CI)", "setting": "patients with GA [2]; Month 6, PM, study-eye level", "value": "0.52 (0.23-1.18)"}, {"measurement": "progression from large drusen to iRORA/cRORA", "setting": "patients with GA [2]; Month 12, 15 mg monthly (PM)", "value": 22.6, "unit": "%"}, {"measurement": "Relative risk of progression from iRORA to cRORA vs sham (95% CI)", "setting": "patients with GA [2]; Month 12, PEOM, lesion level data", "value": "0.60 (0.43-0.82)"}, {"measurement": "Relative risk of progression from iRORA to cRORA vs sham (95% CI)", "setting": "patients with GA [2]; Month 12, PEOM, study-eye level", "value": "0.70 (0.50-0.98)"}, {"measurement": "Relative risk of progression from iRORA to cRORA vs sham (95% CI)", "setting": "patients with GA [2]; Month 12, PM, lesion level data", "value": "0.59 (0.36-0.97)"}, {"measurement": "Relative risk of progression from iRORA to cRORA vs sham (95% CI)", "setting": "patients with GA [2]; Month 12, PM, study-eye level", "value": "0.61 (0.37-1.00)"}, {"measurement": "progression events from large drusen to iRORA/cRORA vs sham (in words)", "setting": "patients with GA [2]; Month 12, monthly", "value": "relatively fewer progression events"}, {"measurement": "rate of progression from nascent GA to GA compared to sham controls (in words)", "setting": "patients with GA [2]; intravitreal injections monthly or every other month", "value": "lower rate of progression from nascent GA to GA"}, {"measurement": "rate of progression of iRORA lesions to cRORA", "setting": "patients with GA [2]; month 6, every other month (PEOM), lesion level", "value": 20.0, "unit": "%"}, {"measurement": "progression from iRORA to cRORA, proportion of study eyes", "setting": "patients with GA [2]; month 6, every other month (PEOM), study-eye level", "value": 40.6, "unit": "%"}, {"measurement": "rate of progression of iRORA lesions to cRORA", "setting": "patients with GA [2]; month 6, monthly (PM), lesion level", "value": 20.7, "unit": "%"}, {"measurement": "progression from iRORA to cRORA, proportion of study eyes", "setting": "patients with GA [2]; month 6, monthly (PM), study-eye level", "value": 27.8, "unit": "%"}, {"measurement": "rate of progression of iRORA lesions to cRORA", "setting": "patients with GA [2]; month 12, every other month (EOM), lesion level", "value": 38.4, "unit": "%"}, {"measurement": "progression from iRORA to cRORA, proportion of study eyes", "setting": "patients with GA [2]; month 12, every other month (PEOM), study-eye level", "value": 57.6, "unit": "%"}, {"measurement": "rate of progression of iRORA lesions to cRORA", "setting": "patients with GA [2]; month 12, monthly (PM), lesion level", "value": 37.9, "unit": "%"}, {"measurement": "progression from iRORA to cRORA, proportion of study eyes", "setting": "patients with GA [2]; month 12, monthly (PM), study-eye level", "value": 50.0, "unit": "%"}, {"measurement": "rate of progression from iRORA to cRORA compared to sham group (in words)", "setting": "patients with GA [2]; monthly or every other month", "value": "lower rate of progression from iRORA to cRORA"}, {"measurement": "intraocular or serum accumulation over multiple injections", "setting": "[3]; doses up to 24.8 mg/eye in 5% dextrose, 50 or 100 μL/eye", "value": "little intraocular or serum accumulation"}, {"measurement": "full toxicological review (ophthalmological assessment, SD-OCT, electroretinography, tonometry, histopathology)", "setting": "[3]; repeated intravitreal injections over nine months, doses up to 24.8 mg/eye", "value": "no evidence of pegcetacoplan-mediated changes"}, {"measurement": "vitreal half-life", "setting": "[4]", "value": "approximately 3.2 days"}, {"measurement": "apparent half-life of serum concentrations", "setting": "[4]; serum", "value": 10.4, "unit": "days"}, {"measurement": "post-dose day until which serum concentrations increased", "setting": "[4]; serum", "value": 7, "unit": "days"}, {"measurement": "serious adverse events", "setting": "patients with wet AMD; initial nine patients, single intravitreal dose 5, 10 or 20 mg", "value": "no serious adverse events were reported"}, {"measurement": "tolerability", "setting": "patients with wet AMD; single intravitreal dose 5 mg, 10 mg, 20 mg in 100 microliters", "value": "well tolerated"}]}
